In PMC9173784 (Proceedings of the National Academy of Sciences of the …, 2022):

How the values were obtained:
GALR1 [1] = test: Zn2+ inhibition assay, NanoBiT; type: cell-based, human
GALR2 [2] = test: Zn2+ inhibition assay, NanoBiT; type: cell-based, human; details: HEK-293T cells, pH 7.3
GALRs [3] = details: cited from earlier work
[4] = system: ionotropic glutamate AMPA receptors; details: cited from earlier work
NMAR receptors = details: cited from earlier work
[5] = molecular target: GALR1 Q92^2.61 to alanine (human) (UniProt P47211)
GALR1 V274G (human) = GALR1 V274G (human) (UniProt P47211)
GALR2 F271^7.32A (human) = GALR2 F271^7.32A (human) (UniProt O43603)
[6] = molecular target: GALR2 Q82^2.61 to alanine (human) (UniProt O43603)
GALR2 R184^5.35A (human) = GALR2 R184^5.35A (human) (UniProt O43603)
[7] = molecular target: GALR1 F275 mutant (human) (UniProt P47211)
[8] = molecular target: GALR2 F264 mutant (human) (UniProt O43603)
GALRs [9] = details: cited from earlier work; remark: listed apart in the source
GALR1 or mutants = test: cAMP inhibition assay; type: cell-based, human; details: CHO cells
GALR2 or mutants = test: IP1 accumulation assay; type: cell-based, human; details: HEK-293T cells, 1 h
GALR1 and its mutants = test: NanoBiT mini-Go recruitment assay; type: cell-based, human
GALR2 and its mutants = test: NanoBiT mini-Gq recruitment assay; type: cell-based, human; details: mutations of conserved TM3/TM5/TM6 residues in GALR2
GALR2 with ICL3 of GALR1 = test: GALR2-Go coupling with ICL3 substitution; type: cell-based, human; details: ICL3 (214 to 225) of GALR2 replaced by GALR1 residues
GALR2 [10] = test: NanoBiT assay, GALR2-Gαs coupling; type: cell-based, human; details: E(-3) in Gαs substituted with the equivalent Gαq residue
GALR2 [11] = test: GALR2-Gq coupling of ICL2 and TM5 mutants; type: cell-based, human; details: L^5.65A mutation in GALR2
GALR1 [12] = details: cited from earlier work
GALR2 [13] = details: cited from earlier work
GALR3 [14] = details: mutation of equivalent residue F263 in GALR3; cited from earlier work
GALR2 [15] = details: specific for GALR2 and GALR3; cited from earlier work
GALR3 [16] = details: specific for GALR2 and GALR3; cited from earlier work
[17] = S235^ICL3 and K237^ICL3 mutations in GALR1

[Zn+2] [Zn^2+, ZnCl2]
character of Zn2+ inhibition (GALR1 [1]; 1 μM galanin, wild-type GALR1, HEK-293T cells, pH 7.3): saturable or has a “ceiling” level
effect of mutation on zinc inhibition (GALR1 [1]; GALR1 H112^3.29A, 1 μM galanin, HEK-293T cells): little influence
effect of mutation on zinc inhibition (GALR1 [1]; GALR1 H263^6.51F, 1 μM galanin, HEK-293T cells): little influence
effect of mutation on zinc inhibition (GALR1 [1]; GALR1 H264^6.52F, 1 μM galanin, HEK-293T cells): little influence
effect on galanin concentration-response curve (GALR1 [1]; H267^6.55A mutant of GALR1, HEK-293T cells): little effect
allosteric modulation of GALR1 (GALR1 [1]; conclusion from NanoBiT assay, listed as zinc ion): negative allosteric regulator
effect on galanin-induced GALR2 activation (GALR2 [2]; below millimolar Zn2+): little effect
Zn2+ concentration at which galanin activation of GALR2 is diminished (GALR2 [2]; galanin-induced, above the physiological concentration): millimolar range
inhibition of galanin binding to the receptors (GALRs [3]): can inhibit galanin binding
effect on AMPA receptors [4]: inhibits
effect on NMDA receptors (NMAR receptors): inhibits

N-terminal region of galanin ([1]–[16]): N-terminal region of galanin
binding affinity for the receptors relative to full-length galanin (GALRs [3]): comparable to the full-length galanin

galanin peptide 1 through 30
fold reduction of galanin potency, cAMP inhibition assay [5]: 100 fold
fold reduction of agonist potency, cAMP inhibition assay (GALR1 V274G (human)): 370 fold
fold reduction of galanin potency, IP1 accumulation assay (GALR2 F271^7.32A (human)): 100 fold
fold reduction of galanin potency, IP1 accumulation assay [6]: 100 fold
fold reduction of galanin potency, IP1 accumulation assay (GALR2 R184^5.35A (human)): 10 fold
fold reduction of galanin potency, cAMP inhibition assay [7]: 100 fold
fold reduction of galanin potency, IP1 accumulation assay [8]: 100 fold

galanin-like peptide (GALP): endogenous galanin-like peptide (APAHRGRGGWTLNSAGYLLGPVLHLPQMGDQDGKRETALEILDLWKAIDGLPYSHPPQPS; Galanin-like peptide; UniProt Q9UBC7 25-84, looked up)
activation of GALRs (GALRs [9]): activate GALRs

galanin: 29- or 30-amino acid peptide, endogenous ligand; galanin peptide 1 through 30 (MedChemExpress)
reduction of agonist (galanin) potency vs wild type (GALR1 or mutants; V274G mutant of GALR1 (ECL3), 1 μM forskolin): about 370 fold
effect of mutation on galanin potency (GALR1 or mutants; W188^ECL2 mutant of GALR1, compared with H176^ECL2 mutant of GALR2): distinct effect
reduction of galanin potency vs wild type (GALR1 or mutants; mutation of F275 (ECL3) in GALR1, 1 μM forskolin): ~100 fold
reduction of galanin potency vs wild type (GALR2 or mutants; Q82^2.61 to alanine mutant of GALR2): ~100 fold
effect of mutation on galanin potency (GALR2 or mutants; Q263A mutant of GALR2 (ECL3)): little effect
reduction of galanin potency vs wild type (GALR2 or mutants; R184^5.35A mutant of GALR2): about 10 fold
reduction of galanin potency vs wild type (GALR2 or mutants; mutation of F264 (ECL3) in GALR2): ~100 fold
effect of mutation on galanin maximum response (GALR1 and its mutants; [17]): dramatically reduced
effect of mutation on galanin potency (GALR1 and its mutants; [17]): modest effect
recruitment of Gi (GALR1 and its mutants; mutations of conserved TM3/TM5/TM6 residues in GALR1): impair
recruitment of Gq (GALR2 and its mutants): impair
ability of GALR2 to bind Go (GALR2 with ICL3 of GALR1): acquired the ability to bind Go
coupling efficiency between GALR2 and Gs (GALR2 [10]): significantly increased
effect of mutation on galanin potency (GALR2 [11]): significantly decreased
reduction of galanin binding affinity (GALR1 [12]; H267^6.55 mutation of GALR1): more than 100 fold
galanin binding affinity of mutants (GALR1 [12]; mutations of F115 and H264 of GALR1): significantly reduce
galanin binding to mutant (GALR2 [13]; mutation of F264 in GALR2): completely abolishes
galanin binding affinity of mutants (GALR2 [13]; mutations of F106, H252, H253, I256, W260, and F261 of GALR2): significantly reduce
galanin binding to mutant (GALR3 [14]): completely abolishes
binding affinity for GALRs (GALRs [3]): subnanomolar range

B1: spexin: endogenous peptide spexin has A7M and G8L mutations in galanin (peptide, UniProt Q9BT56 27-116, looked up)
Spexin: APQRLLERRNWTPQAMLYLKGAQGRRFISDQSRRKDLSDRPLPERRSPNPQLLTIPEAATILLASLQKSPEDEEKNFDQTRFLEDSLLNW
modifications: Spexin
activation of GALRs (GALRs [9]): activate GALRs
activation of GALR2 (GALR2 [15]): specifically activates GALR2 and GALR3
activation of GALR3 (GALR3 [16]): specifically activates GALR2 and GALR3
